In paper PMC9978856 (Acta Pharmaceutica Sinica. B, 2022):
Each block holds one molecule with its values, some of them ahead of it.

How the values were obtained:
CES1 = settings: cited from earlier work
CYP1A [1] = settings: Lan 50 mg/kg/day for 7 days; cited from earlier work
Ldlr KO rats = assay: Lan treatment of Ldlr KO rats; format: in vivo, rat; settings: Lan 50 mg/kg/day p.o. for 21 days
[2] = tested on: food-borne hypercholesteremia rat model; assay: Lan treatment in food-borne hypercholesteremia rat model; format: in vivo
[3] = CYP1A1/2 KO compared with WT group; caffeine 5 mg/kg by gavage
CYP1A [4] = tested on: CYP1A
[5] = HCD + Lan 10 group (10 mg/kg/day, 11 weeks) vs HCD + Sol group
[6] = HCD + Lan 50 group (50 mg/kg/day, 11 weeks) vs HCD + Sol group
[7] = RLM of KO rats compared with WT rats

Compound: C[C@@H](CO)CCC[C@@H](C)[C@H]1CC[C@H]2[C@@H]3CC=C4C[C@@H](O)CC[C@]4(C)[C@H]3CC[C@]12C [27-hydroxycholesterol]
inhibitory effect on CES1 (CES1): strong selective inhibitory effect

CYP1A protein expression in the liver (Ldlr KO rats; Western blot): significantly induced
Compound: Cc1c(OCC(F)(F)F)ccnc1C[S+]([O-])c1nc2ccccc2[nH]1 (centres unmarked) [Lan, Lansoprazole]
increase of the metabolic activity of CYP1A in rats (CYP1A [1]): 4 times
lipids in serum, including TG, LDL-C, HDL-C, and T-C (Ldlr KO rats): remained unchanged
liver lipidosis (HE staining) (Ldlr KO rats): significantly alleviated
decrease of serum LDL-C content [2, 5]: 40%
decrease of serum TG concentration [2, 5]: 27%
increase of HDL-C/LDL-C ratio [2, 5]: 170%
reduction of serum T-C content [2, 5]: 39%
decrease of serum LDL-C content [2, 6]: 65%
decrease of serum TG concentration [2, 6]: 42%
increase of HDL-C/LDL-C ratio [2, 6]: 200%
reduction of serum T-C content [2, 6]: 47%
serum transaminases ([2]; HCD-fed rats, Lan treatment, 11 weeks): reduced serum transaminases to physiological levels
lipid accumulation in liver (oil red O staining) ([2]; both 10 and 50 mg/kg Lan groups vs HCD + Sol group, 11 weeks): less than that in the HCD + Sol group

increase of AUC of caffeine [3]: 200%
Km of caffeine metabolism in RLM (CYP1A [4]; KO versus WT rats RLM): remained unchanged
decrease of CLint of caffeine (CYP1A [4]; [7]): 50%
decrease of Vmax of 3-demethylation caffeine formation (CYP1A [4]; [7]): 38%
Compound: Cn1c(=O)c2c(ncn2C)n(C)c1=O [caffeine]

Compound: CC(C)CCC[C@@H](C)[C@H]1CC[C@H]2[C@@H]3CC=C4C[C@@H](O)CC[C@]4(C)[C@H]3CC[C@]12C [cholesterol]
inhibitory effect on CES1 (CES1): no inhibitory effect
